Assay results: US20260042731A1, “(2,4-DICHLOROPHENOXY)ACETIC ACID ANALOGS” (CORTEVA AGRISCIENCE LLC, priority 2022, published 2026)
Read-outs that look alike come from different tables or passages of the source.

Key:
[1] = system: Amaranthus rudis (AMATA), tall water hemp; experiment: Postemergence herbicide evaluation, growth of Amaranthus rudis (AMATA); type: in vivo; details: Amaranthus tuberculatus, post-emergence, read-out: Ave. AMATA
[2] = system: glyphosate resistant Conyza canadensis (L.) (ERICA), horseweed; experiment: Postemergence herbicide evaluation, growth of Conyza canadensis (ERICA); type: in vivo; details: Erigeron canadensis, post-emergence, read-out: Ave. ERICA
[3] = system: Abutilon theophrasti (ABUTH), velvetleaf; experiment: Postemergence herbicide evaluation, growth of Abutilon theophrasti (ABUTH); type: in vivo; details: Abutilon theophrasti, post-emergence, read-out: AVE. ABUTH
[4] = Volatility of compounds measured by thermogravimetric analysis (TGA); type: physicochemical
[5] = system: Ambrosia artemisiifolia (AMBEL), common ragweed; experiment: Postemergence herbicide evaluation, growth of Ambrosia artemisiifolia (AMBEL); type: in vivo; details: Ambrosia artemisiifolia, post-emergence, read-out: AVE. AMBEL
[6] = system: weeds (ABUTH, AMATA, AMBEL, CHEAL, ERICA); experiment: Postemergence herbicide evaluation, overall average % weed control across ABUTH, AMATA, AMBEL, CHEAL, ERICA; type: in vivo; details: post-emergence, average over the five weeds, read-out: Overall Ave % Weed Control; for pest or weed control at 280 g/ha: 280 g ae/ha; for pest or weed control at 560 g/ha: 560 g ae/ha
[7] = system: Chenopodium album (CHEAL), common lambsquarters; experiment: Postemergence herbicide evaluation, growth of Chenopodium album (CHEAL); type: in vivo; details: Chenopodium album, post-emergence, read-out: Ave. CHEAL
[8] = 168 h, 280 g ae/ha, 7 DAA, percent reduction in plant size relative to untreated control
[9] = 168 h, 560 g ae/ha, 7 DAA, percent reduction in plant size relative to untreated control
[10] = 336 h, 280 g ae/ha, 14 DAA, percent reduction in plant size relative to untreated control
[11] = 336 h, 560 g ae/ha, 14 DAA, percent reduction in plant size relative to untreated control
[12] = 504 h, 280 g ae/ha, 21 DAA, percent reduction in plant size relative to untreated control
[13] = 504 h, 560 g ae/ha, 21 DAA, percent reduction in plant size relative to untreated control

## O=C(COc1ccc(Cl)cc1Cl)Oc1ccc(Cl)cc1 [Compound E5, 4-Chlorophenyl 2-(2,4-dichlorophenoxy)acetate]
[1]; 168 h
  pest or weed control at 280 g/ha: 73%
  pest or weed control at 560 g/ha: 78%
[1]; 336 h
  pest or weed control at 280 g/ha: 75%
  pest or weed control at 560 g/ha: 89%
[1]; 504 h
  pest or weed control at 280 g/ha: 78%
  pest or weed control at 560 g/ha: 86%
[2]; 168 h
  pest or weed control at 280 g/ha: 68%
  pest or weed control at 560 g/ha: 70%
[2]; 336 h
  pest or weed control at 280 g/ha: 90%
  pest or weed control at 560 g/ha: 83%
[2]; 504 h
  pest or weed control at 280 g/ha: 95%
  pest or weed control at 560 g/ha: 90%
[3]; 168 h
  pest or weed control at 280 g/ha: 78%
  pest or weed control at 560 g/ha: 85%
[3]; 336 h
  pest or weed control at 280 g/ha: 93%
  pest or weed control at 560 g/ha: 93%
[3]; 504 h
  pest or weed control at 280 g/ha: 98%
  pest or weed control at 560 g/ha: 97%
[4]
  TGA Data (rate of weight loss, volatility): 0.6 µg/min
[5]; 168 h
  pest or weed control at 280 g/ha: 68%
  pest or weed control at 560 g/ha: 75%
[5]; 336 h
  pest or weed control at 280 g/ha: 89%
  pest or weed control at 560 g/ha: 93%
[5]; 504 h
  pest or weed control at 280 g/ha: 90%
  pest or weed control at 560 g/ha: 98%
[6]; 168 h, 7 DAA
  pest or weed control at 280 g/ha: 71%
  pest or weed control at 560 g/ha: 75%
[6]; 336 h, 14 DAA
  pest or weed control at 280 g/ha: 84%
  pest or weed control at 560 g/ha: 88%
[6]; 504 h, 21 DAA
  pest or weed control at 280 g/ha: 88%
  pest or weed control at 560 g/ha: 93%
[7]; 168 h
  pest or weed control at 280 g/ha: 70%
  pest or weed control at 560 g/ha: 68%
[7]; 336 h
  pest or weed control at 280 g/ha: 73%
  pest or weed control at 560 g/ha: 83%
[7]; 504 h
  pest or weed control at 280 g/ha: 80%
  pest or weed control at 560 g/ha: 94%

## O=C(COc1ccc(Cl)cc1Cl)n1cnc2ccccc21 [Compound D4, 1-(1H-Benzo[d]imidazol-1-yl)-2-(2,4-dichlorophenoxy)ethanone]
[1]; 168 h
  pest or weed control at 280 g/ha: 75%
  pest or weed control at 560 g/ha: 83%
[1]; 336 h
  pest or weed control at 280 g/ha: 75%
  pest or weed control at 560 g/ha: 97%
[1]; 504 h
  pest or weed control at 280 g/ha: 75%
  pest or weed control at 560 g/ha: 95%
[2]; 168 h
  pest or weed control at 280 g/ha: 70%
  pest or weed control at 560 g/ha: 70%
[2]; 336 h
  pest or weed control at 280 g/ha: 83%
  pest or weed control at 560 g/ha: 94%
[2]; 504 h
  pest or weed control at 280 g/ha: 88%
  pest or weed control at 560 g/ha: 99%
[3]; 168 h
  pest or weed control at 280 g/ha: 85%
  pest or weed control at 560 g/ha: 93%
[3]; 336 h
  pest or weed control at 280 g/ha: 95%
  pest or weed control at 560 g/ha: 96%
[3]; 504 h
  pest or weed control at 280 g/ha: 98%
  pest or weed control at 560 g/ha: 98%
[4]
  TGA Data (rate of weight loss, volatility): 0.2 µg/min
[5]; 168 h
  pest or weed control at 280 g/ha: 60%
  pest or weed control at 560 g/ha: 68%
[5]; 336 h
  pest or weed control at 280 g/ha: 85%
  pest or weed control at 560 g/ha: 95%
[5]; 504 h
  pest or weed control at 280 g/ha: 85%
  pest or weed control at 560 g/ha: 98%
[6]; 168 h, 7 DAA
  pest or weed control at 280 g/ha: 72%
  pest or weed control at 560 g/ha: 76%
[6]; 336 h, 14 DAA
  pest or weed control at 280 g/ha: 83%
  pest or weed control at 560 g/ha: 93%
[6]; 504 h, 21 DAA
  pest or weed control at 280 g/ha: 86%
  pest or weed control at 560 g/ha: 97%
[7]; 168 h
  pest or weed control at 280 g/ha: 68%
  pest or weed control at 560 g/ha: 65%
[7]; 336 h
  pest or weed control at 280 g/ha: 75%
  pest or weed control at 560 g/ha: 85%
[7]; 504 h
  pest or weed control at 280 g/ha: 83%
  pest or weed control at 560 g/ha: 93%

## N/C(=N\OC(=O)COc1ccc(Cl)cc1Cl)c1ccc(/C(N)=N/OC(=O)COc2ccc(Cl)cc2Cl)cc1 [Compound B5, (1,4)—N°1, N°4-Bis(2-(2,4-dichlorophenoxy)acetoxy)terephthalimidamide]
[1]; [8]
  pest or weed control at 280 g/ha: 25%
[1]; [9]
  pest or weed control at 560 g/ha: 25%
[1]; [10]
  pest or weed control at 280 g/ha: 0%
[1]; [11]
  pest or weed control at 560 g/ha: 18%
[1]; [12]
  pest or weed control at 280 g/ha: 15%
[1]; [13]
  pest or weed control at 560 g/ha: 33%
[2]; [8]
  pest or weed control at 280 g/ha: 5%
[2]; [9]
  pest or weed control at 560 g/ha: 25%
[2]; [10]
  pest or weed control at 280 g/ha: 30%
[2]; [11]
  pest or weed control at 560 g/ha: 35%
[2]; [12]
  pest or weed control at 280 g/ha: 15%
[2]; [13]
  pest or weed control at 560 g/ha: 28%
[3]; [8]
  pest or weed control at 280 g/ha: 0%
[3]; [9]
  pest or weed control at 560 g/ha: 3%
[3]; [10]
  pest or weed control at 280 g/ha: 10%
[3]; [11]
  pest or weed control at 560 g/ha: 3%
[3]; [12]
  pest or weed control at 280 g/ha: 10%
[3]; [13]
  pest or weed control at 560 g/ha: 0%
[4]
  TGA Data (rate of weight loss, volatility): 0.1 µg/min
[5]; [8]
  pest or weed control at 280 g/ha: 18%
[5]; [9]
  pest or weed control at 560 g/ha: 15%
[5]; [10]
  pest or weed control at 280 g/ha: 8%
[5]; [11]
  pest or weed control at 560 g/ha: 15%
[5]; [12]
  pest or weed control at 280 g/ha: 5%
[5]; [13]
  pest or weed control at 560 g/ha: 18%
[6]; 168 h, 7 DAA
  pest or weed control at 280 g/ha: 13%
  pest or weed control at 560 g/ha: 16%
[6]; 336 h, 14 DAA
  pest or weed control at 280 g/ha: 14%
  pest or weed control at 560 g/ha: 17%
[6]; 504 h, 21 DAA
  pest or weed control at 280 g/ha: 17%
  pest or weed control at 560 g/ha: 18%
[7]; [8]
  pest or weed control at 280 g/ha: 15%
[7]; [9]
  pest or weed control at 560 g/ha: 13%
[7]; [10]
  pest or weed control at 280 g/ha: 20%
[7]; [11]
  pest or weed control at 560 g/ha: 15%
[7]; [12]
  pest or weed control at 280 g/ha: 40%
[7]; [13]
  pest or weed control at 560 g/ha: 13%
